Experimental data: US9439899B2, “Cancer therapy using a combination of HSP90 inhibitors with topoisomerase I inhibitors” (Synta Pharmaceuticals Corp., priority 2011, dated 2016)

Tested on: HCT-116 colorectal cancer cells
Assay: Cell viability (alamarBlue) assay, single agents and combinations, in HCT-116 colorectal cancer cells
Assay type: cell-based
Conditions: Homo sapiens; HCT-116 cells exposed to drug for 72 hr; 1.5-fold serial dilution; four parameter logistic fit; read-out: half maximal inhibitory concentration (IC50), cell viability
Protocol: Human HCT-116 colorectal cancer cells (CRC) were purchased from the American Type Culture Collection (Manassas, Va.) and grown in McCoy's 5a media (Sigma), following ATCC recommendations, in the presence of fetal bovine serum (10%), 2 mM L-glutamine and antibiotics (100 IU/ml penicillin and 100 μg/ml streptomycin, Sigma). Cells were maintained at 37° C., 5% CO2 atmosphere.
Cell viability was measured using the alamarBlue assay (Invitrogen). In brief, cells were plated in 96-well plates in triplicate at 5K cells per well and incubated at 37° C., 5% CO2 atmosphere for 24 hr prior to the addition of drug or vehicle (0.3% DMSO) to the culture medium. After 72 hr, 10 μl/well alamarBlue was added to the wells and incubated for an additional 3 hr at 37° C., 5% CO2 atmosphere. Fluorescence (560EX/590EM […]) was measured with a SpectraMax microplate reader (Molecular Devices) and the resulting data were used to calculate cell viability, normalized to vehicle control. […]
Combinations between ganetespib and irinotecan were then performed in HCT-116 cells concurrently based on the IC50 for each agent in matrix format with 54 combination pairs for each drug. The combined drugs, as well as each drug alone, were incubated with the cells for 3 days and the surviving fraction of cells relative to control was determined using the alamarBlue assay.

**Q.** For `CC(C)c1cc(-c2nnc(O)n2-c2ccc3c(ccn3C)c2)c(O)cc1O` [ganetespib, 3-(2,4-DIHYDROXY-5- ISOPROPYL-PHENYL)-4-(1- METHYL-INDOL-5-YL)-5- HYDROXY-[1,2,4] TRIAZOLE], which IC50 is on record?
**A.** The IC50 was roughly 0.032 µM.

**Q.** Which IC50 does the source give for `CCc1c2c(nc3ccc(OC(=O)N4CCC(N5CCCCC5)CC4)cc13)-c1cc3c(c(=O)n1C2)COC(=O)[C@]3(O)CC` [irinotecan] here?
**A.** The IC50 was roughly 2.3 µM.
